Laboratory results published in publication PMC6050298, “Highly active enzymes by automated combinatorial backbone assembly and sequence design” (Nature Communications, 2018).

Tests used:
pll2.2 = system: T1, pll2.2; assay type: biochemical, synthetic construct
T1 construct: computational design (54 mutations to nearest natural protein), N-terminal His6-MBP fusion kept

pll2.4 = system: T2, pll2.4; assay type: biochemical, synthetic construct
T2 construct: computational design (60 mutations to nearest natural protein), N-terminal His6-MBP fusion kept

pll4.1 = system: T3, pll4.1; assay type: biochemical, synthetic construct
T3 construct: computational design (85 mutations to nearest natural protein), N-terminal His6-MBP fusion kept

[1] = molecular target: T4, GH10 from S. lividans (PDB ID 1E0V) (Streptomyces lividans, UniProt P26514); assay: 4-nitrophenol release, […] nm; assay type: biochemical; settings: 37 °C, 50 mM Tris pH 6.5, 150 mM NaCl; MBP fusion
T4 construct: gene xlnA; synthetic codon-optimised gene, N-terminal His6-MBP fusion kept in assay, E. coli BL21 DE3; probably catalytic domain as in 1E0V

xyl3.2 = system: T5, xyl3.2; assay: 4-nitrophenol release, […] nm, Michaelis-Menten fit; assay type: biochemical, synthetic construct; settings: 37 °C, 50 mM Tris pH 6.5, 150 mM NaCl; MBP fusion
T5 construct: computational design (112 mutations to nearest natural protein), N-terminal His6-MBP fusion kept

T4 sequence (P26514 42-354): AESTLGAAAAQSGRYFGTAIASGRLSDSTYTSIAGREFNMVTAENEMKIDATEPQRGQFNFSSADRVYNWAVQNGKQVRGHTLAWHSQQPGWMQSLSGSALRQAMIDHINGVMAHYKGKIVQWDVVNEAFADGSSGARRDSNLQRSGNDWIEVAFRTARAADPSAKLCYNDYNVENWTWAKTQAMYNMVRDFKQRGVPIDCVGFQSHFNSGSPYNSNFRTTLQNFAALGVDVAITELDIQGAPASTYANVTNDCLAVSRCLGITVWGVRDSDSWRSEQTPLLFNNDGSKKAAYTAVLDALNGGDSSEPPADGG

SMILES | Km (pll2.2) | Km (pll2.4) | Km (pll4.1) | kcat/KM [1] | Km (xyl3.2)
CCCCSC1CCC(=O)O1 (centres unmarked) [5-thiobutyl butyrolactone] | 180 µM | 82 µM | 350 µM |  | 
O=[N+]([O-])c1ccc(O[C@@H]2OC[C@@H](O[C@@H]3OC[C@@H](O)[C@H](O)[C@H]3O)[C@H](O)[C@H]2O)cc1 [4-nitrophenyl β-xylobioside] |  |  |  | Catalytic efficiency of GH10 designs with OPNPX2 compared to natural GH10 enzymes | 160 ± 20 µM
